In ChEMBL document CHEMBL3822383, “Coumarin sulfonamides derivatives as potent and selective COX-2 inhibitors with efficacy in suppressing cancer proliferation and metastasis” (Bioorg Med Chem Lett, 2016):
Calls of active or inactive are those of the source. The rule behind the calls is not given here.

Key:
HeLa [1] = assay: cells; settings: Homo sapiens, 24 h
Description: Antiproliferative activity against human HeLa cells after 24 hrs by MTT assay

cells [2] = settings: Homo sapiens, HEK-293T, 24 h
Description: Antiproliferative activity against human 293T cells after 24 hrs by MTT assay

HepG2 = assay: cells; settings: Homo sapiens, HepG2, 24 h
Description: Antiproliferative activity against human HepG2 cells after 24 hrs by MTT assay

[3] = target: Prostaglandin G/H synthase 1 (Homo sapiens, UniProt P23219); assay: Inhibition of human COX1 using arachidonic acid assessed as production of PGF2alpha after 5 mins by ELISA
cells [4] = settings: Mus musculus, B16-F10, 24 h
Description: Antiproliferative activity against mouse B16F10 cells after 24 hrs by MTT assay

A549 = assay: cells; settings: Homo sapiens, A549, 24 h
Description: Antiproliferative activity against human A549 cells after 24 hrs by MTT assay

cells [5] = settings: Homo sapiens, L02, 24 h
Description: Antiproliferative activity against human LO2 cells after 24 hrs by MTT assay

HeLa [6] = assay: Inhibition of PGE2 secretion in human HeLa cells at 0.1 uM after 24 hrs by EIA monoclonal assay; format: functional, cell-based
HeLa [7] = assay: Inhibition of cell adhesion in human HeLa cells assessed as reduction in cell attachment up to 8 uM after 1 hr by MTT assay; format: functional, cell-based

Sequence of Prostaglandin G/H synthase 1 (P23219 whole entry): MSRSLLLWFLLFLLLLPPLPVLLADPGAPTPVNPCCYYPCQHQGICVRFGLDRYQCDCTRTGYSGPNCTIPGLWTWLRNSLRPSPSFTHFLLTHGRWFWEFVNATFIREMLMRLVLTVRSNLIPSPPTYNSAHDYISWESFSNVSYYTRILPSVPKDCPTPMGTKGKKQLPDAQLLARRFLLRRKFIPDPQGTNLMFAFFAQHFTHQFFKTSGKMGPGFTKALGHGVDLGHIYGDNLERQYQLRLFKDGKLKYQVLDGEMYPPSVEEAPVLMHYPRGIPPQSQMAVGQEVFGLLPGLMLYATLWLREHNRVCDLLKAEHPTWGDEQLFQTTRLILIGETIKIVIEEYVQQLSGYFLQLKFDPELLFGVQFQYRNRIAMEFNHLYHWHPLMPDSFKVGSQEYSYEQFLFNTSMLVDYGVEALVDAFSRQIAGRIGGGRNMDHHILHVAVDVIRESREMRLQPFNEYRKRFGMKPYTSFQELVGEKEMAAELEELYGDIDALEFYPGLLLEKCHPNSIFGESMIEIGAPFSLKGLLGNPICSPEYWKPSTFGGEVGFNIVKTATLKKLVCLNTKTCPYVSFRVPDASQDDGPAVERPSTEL

Structure (SMILES) | IC50 (HeLa [1]) [µM] | IC50 (cells [2]) [µM] | IC50 (HepG2) [µM] | IC50 [3] [µM] | IC50 (cells [4]) [µM] | IC50 (A549) [µM] | IC50 (cells [5]) [µM] | inhibition (HeLa [6]) | inhibition (HeLa [7])
NS(=O)(=O)c1ccc(-n2nc(C(=O)N/N=C/c3c(Cl)c4ccccc4oc3=O)cc2-c2ccccc2Cl)cc1 | 5.09 | 254 | 6.1 | 86.2 | 9.12 | 12.3 | 214 |  | 
CCOc1ccc(-c2cc(C(=O)N/N=C/c3c(Cl)c4ccccc4oc3=O)nn2-c2ccc(S(N)(=O)=O)cc2)cc1 |  |  |  | 78.5 |  |  |  |  | 
COc1cccc(-c2cc(C(=O)N/N=C/c3c(Cl)c4ccccc4oc3=O)nn2-c2ccc(S(N)(=O)=O)cc2)c1 | 7.58 | 107 | 15.7 | > 100 | 9.58 | 22.4 | 105 |  | 
Cc1cccc(-c2cc(C(=O)N/N=C/c3c(Cl)c4ccccc4oc3=O)nn2-c2ccc(S(N)(=O)=O)cc2)c1 | 11.1 | > 300 | 5.98 | 48.2 | 5.28 | 20.3 | 199 |  | 
Cc1ccc(-c2cc(C(=O)N/N=C/c3c(Cl)c4ccccc4oc3=O)nn2-c2ccc(S(N)(=O)=O)cc2)c(C)c1 | 7.95 | 175 | 6.7 | 39.5 | 4.68 | 28.5 | 206 |  | 
NS(=O)(=O)c1ccc(-n2nc(C(=O)N/N=C/c3c(Cl)c4ccccc4oc3=O)cc2-c2ccccc2F)cc1 | 2.85 | 108 | 5.94 | > 100 | 6.41 | 14.3 | 148 |  | 
NS(=O)(=O)c1ccc(-n2nc(C(=O)N/N=C/c3c(Cl)c4ccccc4oc3=O)cc2-c2ccc([N+](=O)[O-])cc2)cc1 | 0.52 | 113 | 1.63 | 42.2 | 4.04 | 3.85 | 133 |  | 
COc1cc(-c2cc(C(=O)N/N=C/c3c(Cl)c4ccccc4oc3=O)nn2-c2ccc(S(N)(=O)=O)cc2)cc(OC)c1OC | 16.2 | 101 | 20 | 49.8 | 26.2 | 26.1 | 116 |  | 
COc1ccc(-c2cc(C(=O)N/N=C/c3c(Cl)c4ccccc4oc3=O)nn2-c2ccc(S(N)(=O)=O)cc2)cc1 | 12 | > 300 | 14.7 | 84.3 | 7.31 | 31.5 | > 300 |  | 
NS(=O)(=O)c1ccc(-n2nc(C(=O)N/N=C/c3c(Cl)c4ccccc4oc3=O)cc2-c2ccccc2)cc1 | 9.86 | 180 | 5.76 | > 100 | 9.53 | 33.5 | 183 |  | 
NS(=O)(=O)c1ccc(-n2nc(C(=O)N/N=C/c3c(Cl)c4ccccc4oc3=O)cc2-c2ccccc2O)cc1 | 11.7 | > 300 | 19.9 | > 100 | 20.9 | 17.2 | 159 |  | 
COc1ccc(-c2cc(C(=O)N/N=C/c3c(Cl)c4ccccc4oc3=O)nn2-c2ccc(S(N)(=O)=O)cc2)cc1OC | 13.1 | 175 | 21.2 | 69.3 | 19.8 | 40.1 | 187 |  | 
NS(=O)(=O)c1ccc(-n2nc(C(=O)N/N=C/c3c(Cl)c4ccccc4oc3=O)cc2-c2cccc(Cl)c2)cc1 | 5.46 | 152 | 6.75 | > 100 | 15.6 | 14.7 | 168 |  | 
Cc1ccc(-c2cc(C(=O)N/N=C/c3c(Cl)c4ccccc4oc3=O)nn2-c2ccc(S(N)(=O)=O)cc2)cc1 | 8.81 | 189 | 11.3 | 89.5 | 6.22 | 22.1 | > 300 |  | 
NS(=O)(=O)c1ccc(-n2nc(C(=O)N/N=C/c3c(Cl)c4ccccc4oc3=O)cc2-c2ccc(Cl)c(Cl)c2)cc1 | 4.91 | 153 | 5.12 | 96.6 | 7.45 | 23.5 | > 300 |  | 
Cc1ccc(-c2cc(C(F)(F)F)nn2-c2ccc(S(N)(=O)=O)cc2)cc1 [CELECOXIB] | 7.79 | 95.3 | 10 |  | 14.4 | 15.6 | 98.2 | Active | inactive
Cc1ccc(-c2cc(C(=O)N/N=C/c3c(Cl)c4ccccc4oc3=O)nn2-c2ccc(S(N)(=O)=O)cc2)cc1C | 6.92 | 233 | 4.41 | > 100 | 6.93 | 24.2 | > 300 |  | 
NS(=O)(=O)c1ccc(-n2nc(C(=O)N/N=C/c3c(Cl)c4ccccc4oc3=O)cc2-c2ccc(O)cc2)cc1 | 12.4 | 139 | 18.2 | > 100 | 21.3 | 26.4 | 163 |  | 
NS(=O)(=O)c1ccc(-n2nc(C(=O)N/N=C/c3c(Cl)c4ccccc4oc3=O)cc2-c2ccc(F)cc2)cc1 | 0.94 | 181 | 3.53 | 53.4 | 9.76 | 11.2 | 192 |  | 
NS(=O)(=O)c1ccc(-n2nc(C(=O)N/N=C/c3c(Cl)c4ccccc4oc3=O)cc2-c2cccc(F)c2)cc1 | 3.43 | 155 | 4.74 | 74.3 | 8.79 | 16.2 | 206 |  | 
